US20180085362A1, “COMBINATION OF PHOSPHATIDYLINOSITOL-3-KINASE (PI3K) INHIBITOR AND A MTOR INHIBITOR” (Novartis AG, priority 2011, published 2018)

Columns and labels:
[1] = test system: SKBR-3 human breast cancer cell line; assay: CellTiter-Glo cell proliferation assay, dose matrix, SKBR-3; format: cell-based; conditions: SKBR-3, 72 hrs; for Amax, the maximum fraction of inhibition: fraction growth inhibition compare to DMSO control, everolimus 1 nM-27 nM, Compound I 4 nM-3 μM
Method: The human breast cancer cell line SKBR-3 is purchased from American Type Cell Collection. The SKBR-3 human breast cancer cell line is HER2 amplified.
Single agent dose responding curves, IC50, IC90, and the Synergy are all analyzed using Chalice software (CombinatoRx, Cambridge Mass.). Synergy is calculated by comparing a combination's response to those of its single agents, against the drug-with-itself dose-additive reference model. Deviations from dose additivity can be assessed visually on an Isobologram or numerically with a Combination Index. Excess inhibition compare to additivity can also be plotted as a full dose-matrix chart to capture where the synergies occur. To quantify the overall strength of combination effects, a volume score VHSA=ΣX,Y, InfX InfY (Idata−IHSA) is also calculated between the data and the highest-single-agent surface, normalized for single agent dilution factors fX,fY.
The cells are plated at 3000 cells per well in 384 well plates in triplicates, and treated with compound for 72 hrs before the measurement (FIG. 13).

[2] = test system: BT-474 human breast cancer cell line; assay: CellTiter-Glo cell proliferation assay, dose matrix, BT-474; format: cell-based; conditions: BT-474, 72 hrs; for Amax (maximum fraction of inhibition): fraction growth inhibition compare to DMSO control, everolimus 1 nM-27 nM, Compound I 4 nM-3 μM
Method: (§1) Cell viability is determined by measuring cellular ATP content using the CellTiter-Glo® Luminescent Cell Viability Assay (Promega #G7573) according to manufacturer's protocol.
(§2) Single agent dose responding curves, IC50, IC90, and the Synergy are all analyzed using Chalice software (CombinatoRx, Cambridge Mass.). Synergy is calculated by comparing a combination's response to those of its single agents, against the drug-with-itself dose-additive reference model. Deviations from dose additivity can be assessed visually on an Isobologram or numerically with a Combination Index. Excess inhibition compare to additivity can also be plotted as a full dose-matrix chart to capture where the synergies occur. To quantify the overall strength of combination effects, a volume score VHSA=ΣX,Y InfX InfY (Idata−IHSA) is also calculated between the data and the highest-single-agent surface, normalized for single agent dilution factors fX,fY.
The experiment setup is identical to the experiment procedure described above for the SKBR-3 model (FIG. 14).

[3] = test system: T47-D human breast cancer cell line; assay: CellTiter-Glo cell proliferation assay, dose matrix, T47-D; format: cell-based; conditions: 72 hrs; for Amax (maximum fraction of inhibition): fraction growth inhibition compare to DMSO control, everolimus 1 nM-27 nM, Compound I 4 nM-3 μM
Method: The human breast cancer cell line T47-D is purchased from American Type Cell Collection. The T47-D human breast cancer cell line includes PIK3CA mutation.
as §1, §2
The experiment setup is identical to the experiment procedure described above for the SKBR-3 model (FIG. 15).

[4] = test system: ZR-75-1 human breast cancer cell line; assay: CellTiter-Glo cell proliferation assay, dose matrix, ZR-75-1; format: cell-based; conditions: for Amax (maximum fraction of inhibition): ZR-75-1, 72 hrs, fraction growth inhibition compare to DMSO control, everolimus 1 nM-27 nM, Compound I 4 nM-3 μM
[5] = Toxicity (body weight, deaths) in DU145 xenograft study; format: in vivo, nude mice (nu/nu); design: key to Mean BW Nadir: — indicates no decrease in mean body weight is observed; conditions: for Deaths (TR/NTR): ten mice
Method: Paclitaxel is administered via bolus tail veil injections (i.v.) once daily on alternate days for five doses (qod×5). The dosing volume, 10 mL/kg ( )0.2 mL/20 g mouse), is scaled to the weight to each animal as determined on the day of dosing, except on weekends, when the Friday BWs are carried forward.
11 groups of nude mice (n=10 per group) are treated as follows: Group 1 mice receives Vehicle 1 and Vehicle 2, and served as controls for all analyses. […] Groups 5-7 receives monotherapies with 2.5, 5, and 10 mg/kg RAD001, respectively. […] Group 11 receives 25 mg/kg paclitaxel.
Animals are weighed on Days 1-5, and on each treatment day (except weekend days) until the end of the study. Acceptable toxicity for the maximum tolerated dose is defined as a group mean BW loss of less than 15% during the test, and not more than one treatment-related (TR) death among ten animals. Any animal with BW losses exceeding 20% for one measurement, is to be euthanized and classified as a TR death, unless it is the first death in the group. Non-treatment-related (NTR) deaths are to be categorized as NTRa (due to accident or error), NTRu (due to unknown causes), or NTRm (necropsy-confirmed tumor dissemination by invasion and/or metastasis).

[6] = test system: DU145 human prostate carcinoma; assay: Tumor growth inhibition, DU145 human prostate carcinoma nude mouse xenograft model; conditions: for Mean volume Change: Day 1 to Day 21; for T/C: Day 21
[7] = single agent, read-out: IC50 (cell growth)
[8] = Group 2: Compound I 12.5 mg/kg p.o. qd×21
[9] = Group 3: Compound I 25 mg/kg p.o. qd×21
[10] = Group 4: Compound I 50 mg/kg p.o. qd×21
[11] = Group 11: Paclitaxel 25 mg/kg i.v. qod×5
[12] = Group 5: RAD001 2.5 mg/kg p.o. qd×21
[13] = Group 6: RAD001 5 mg/kg p.o. qd×21
[14] = Group 7: RAD001 10 mg/kg p.o. qd×21

In the case of Cc1nc(NC(=O)N2CCC[C@H]2C(N)=O)sc1-c1ccnc(C(C)(C)C(F)(F)F)c1 [Compound I, (S)-Pyrrolidine-1,2-dicarboxylic acid 2-amide 1-({4-methyl-5-[2-(2,2,2-trifluoro-1,1-dimethyl-ethyl)-pyridin-4-yl]-thiazol-2-yl}-amide)], the “Amax, the maximum fraction of inhibition” value [1] is reported as 0.40, the “Amax (maximum fraction of inhibition)” value [2] is reported as “around 0.53” and the IC50 [2, 7] is reported as ~3000 nM. For the same molecule, the “Amax (maximum fraction of inhibition)” value [3] was “around 0.67”, the IC50 [3, 7] was ~330 nM and the “Amax (maximum fraction of inhibition)” value [4] was “around 0.16”. The “Mean BW Nadir” value [5, 8] was “—”, the “Deaths (TR/NTR)” value [5, 8] was 0/0 and the “Mean BW Nadir” value [5, 9] was “—”. The “Deaths (TR/NTR)” value [5, 9] was 0/0, the “Mean BW Nadir” value ([5]; Group 4: Compound I 50 mg/kg p.o. qd×21, % change from Day 1, nadir Day 8) was −8.1% and the “Deaths (TR/NTR)” value [5, 10] was 3/0. For the same molecule, the “Mean volume Change” value [6, 8] was 501 mm^3, the T/C [6, 8] was “(T/C = 64%)” and the “Statistical Signif. vs. G1” value ([6]; Group 2: Compound I 12.5 mg/kg, Kruskal-Wallis with Dunn's test) was “ns (vs. G1)”. The “Mean volume Change” value [6, 9] was 129 mm^3, the “Statistical Signif. vs. G1” value ([6]; Group 3: Compound I 25 mg/kg, Kruskal-Wallis with Dunn's test) was “*** (vs. G1) (*** = P < 0.001)” and the “Mean volume Change” value [6, 10] was 150 mm^3. For the same molecule, the T/C [6, 10] was “(T/C = 19%)”.

For CC(=O)O[C@H]1C(=O)[C@@]2(C)[C@H]([C@H](OC(=O)c3ccccc3)[C@]3(O)C[C@H](OC(=O)[C@H](O)[C@@H](NC(=O)c4ccccc4)c4ccccc4)C(C)=C1C3(C)C)[C@]1(OC(C)=O)CO[C@@H]1C[C@@H]2O [Paclitaxel], the “Mean BW Nadir” value ([5]; Group 11: Paclitaxel 25 mg/kg i.v. qod×5, % change from Day 1, nadir Day 12) was −1.9%, the “Deaths (TR/NTR)” value [5, 11] was 0/1 and the “Mean volume Change” value [6, 11] was 898 mm^3. For the same molecule, the T/C [6, 11] was “(TIC = 115%)” and the “Statistical Signif. vs. G1” value ([6]; Group 11: Paclitaxel 25 mg/kg, Mann-Witney U test) was “ns (using”.

With CO[C@H]1C[C@@H]2CC[C@@H](C)[C@@](O)(O2)C(=O)C(=O)N2CCCC[C@H]2C(=O)O[C@H]([C@H](C)C[C@@H]2CC[C@@H](OCCO)[C@H](OC)C2)CC(=O)[C@H](C)/C=C(\C)[C@@H](O)[C@@H](OC)C(=O)[C@H](C)C[C@H](C)/C=C/C=C/C=C/1C [everolimus (RAD001), (1R,9S,12S,15R,16E,18R,19R, 21R,23S,24E,26E,28E,30S,32S,35R)-1,18-dihydroxy-12-{(1R)-2-[(1 S,3R,4R)-4-(2-hydroxyethoxy)-3-methoxycyclohexyl]-1-methylethyl}-19,30-dimethoxy-15,17,21,23,29,35-hexamethyl-11,36-dioxa-4-aza-tricyclo[30.3.1.04,9] hexatriaconta-16,24, 26,28-tetraene-2,3,10,14,20-pentaone] the “Amax, the maximum fraction of inhibition” value [1] was 0.32, the “IC50 (cell proliferation)” value ([1]; single agent, 1 nM-27 nM) was “never achieved an IC50” and the “Amax (maximum fraction of inhibition)” value [2] was 0.36. The “IC50 (cell growth)” value ([2]; single agent) was “never achieves an IC50”, the “Amax (maximum fraction of inhibition)” value [3] was 0.37 and the “IC50 (cell growth)” value ([3]; single agent) was “never achieved an IC50”. For the same molecule, the IC50 ([4]; Homo sapiens, ZR-75-1, 72 h, read-out: IC50 (cell proliferation)) was ~15 nM, the “Amax (maximum fraction of inhibition)” value [4] was 0.55 and the “Mean BW Nadir” value [5, 12] was “—”. The “Deaths (TR/NTR)” value [5, 12] was 0/0, the “Mean BW Nadir” value [5, 13] was “—” and the “Deaths (TR/NTR)” value [5, 13] was 0/0. For the same molecule, the “Mean BW Nadir” value [5, 14] was “—”, the “Deaths (TR/NTR)” value [5, 14] was 0/0 and the “Mean volume Change” value [6, 12] was 424 mm^3. The T/C [6, 12] was “(T/C = 54%)”, the “Statistical Signif. vs. G1” value ([6]; Group 5: RAD001 2.5 mg/kg, Kruskal-Wallis with Dunn's test) was “ns (vs. G1)” and the “Mean volume Change” value [6, 13] was 269 mm^3. The T/C [6, 13] was “(T/C = 43%)”, the “Statistical Signif. vs. G1” value ([6]; Group 6: RAD001 5 mg/kg, Kruskal-Wallis with Dunn's test) was “* (vs. G1) (* = P < 0.05)” and the “Mean volume Change” value [6, 14] was 341 mm^3. The T/C [6, 14] was “(T/C = 43%)” and the “Statistical Signif. vs. G1” value ([6]; Group 7: RAD001 10 mg/kg, Kruskal-Wallis with Dunn's test) was “ns (vs. G1)”.
